Data: patent publication US20100234395A1, “UREIDE DERIVATIVE AND PHARMACEUTICAL APPLICATION THEREOF” (TORAY INDUSTRIES, INC., priority 2006, published 2010)
pIC50: −log10 of the molar value. Read-outs that look alike come from different tables or passages of the source.

Assays:
ddY mice [1] = test: Acetic acid writhing test in mice (analgesic effects); assay type: in vivo; conditions: for ED50: Mus musculus; for activity ratio (analgesic effects): subcutaneous administration
Method: ddY mice were grown for at least 16 hours under fasting conditions while free water intake was allowed, and a solution of the test compound or a solvent was orally administered thereto (0.1 ml/10 g). As a solvent for a solution of the test compound, dimethyl sulfoxide (DMSO):Tween 80:27% hydroxypropyl-P-cyclodextrin (hereafter abbreviated to “HP-β-CD”) (1:1:8) or 27% HP-β-CD was used. A solution of 0.6% acetic acid (0.1 ml/10 g) was administered intraperitoneally 45 minutes after administration to induce a writhing reaction (i.e., a movement of stretching or arching the body). The number of the writhing reactions that had occurred for the period from 10 minutes after administration of the acetic acid solution to 10 minutes thereafter was counted, and the number of times was designated as an indicator of pain. The number of times of reactions in the group to which a solvent had been administered was designated as 100%, and the concentration of the test compound that had inhibited 50% of such reaction was designated as the ED50 value.
The compound of Reference Example 78 is disclosed in the claims of JP Patent Publication (kohyo) No. 2006-517535 A, the compounds of Reference Examples 93 and 199 are disclosed in the claims of JP Patent No. 3003148, and the compound of Reference Example 103 is disclosed in the claims of JP Patent Publication (kohyo) No. 2006-514095 A. Thus, these compounds were compared with the compounds of the present invention having similar structures in terms of analgesic effects with oral administration (Table 4) or subcutaneous administration (Table 5). Dimethyl sulfoxide (DMSO):Tween 80:27% HP-β-CD (1:1:8) or 27% HP-β-CD was used as a solvent for the test compound.

COX-1 = biological target: T1, COX-1 (Homo sapiens, UniProt P23219); test: Activity of inhibiting COX-1 in human blood (thromboxane B2 after ionomycin); assay type: cell-based; conditions: thromboxane B2 production
T1 construct: Human blood that had been sampled with the use of heparin (19 units/ml) was used; from tissue; host or cells: human whole blood (heparinised)
T1 sequence (P23219 24-599): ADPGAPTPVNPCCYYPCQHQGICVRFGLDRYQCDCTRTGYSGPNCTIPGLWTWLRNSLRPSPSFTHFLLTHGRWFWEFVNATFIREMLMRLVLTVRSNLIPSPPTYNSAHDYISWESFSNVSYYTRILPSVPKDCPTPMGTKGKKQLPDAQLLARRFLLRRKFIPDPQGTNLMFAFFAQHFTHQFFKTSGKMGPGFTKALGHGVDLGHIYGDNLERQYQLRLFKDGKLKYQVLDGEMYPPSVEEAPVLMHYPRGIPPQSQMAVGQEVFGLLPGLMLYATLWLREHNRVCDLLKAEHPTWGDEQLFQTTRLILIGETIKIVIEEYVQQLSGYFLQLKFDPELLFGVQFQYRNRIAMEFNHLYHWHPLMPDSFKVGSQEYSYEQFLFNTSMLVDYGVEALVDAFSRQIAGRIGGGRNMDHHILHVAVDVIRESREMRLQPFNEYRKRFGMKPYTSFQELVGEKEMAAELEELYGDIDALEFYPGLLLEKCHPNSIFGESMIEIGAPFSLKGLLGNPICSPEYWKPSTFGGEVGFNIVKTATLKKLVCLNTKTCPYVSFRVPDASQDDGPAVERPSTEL
Method: Human blood that had been sampled with the use of heparin (19 units/ml) was used. Blood was fractionated to reaction tubes in amounts of 500 μl, the test compound or solvent was added thereto, and the resultants were incubated at 37° C. for 60 minutes. Dimethyl sulfoxide (DMSO) was used as a solvent for the test compound. Thereafter, ionomycin (30 nM) was added, and the reaction was allowed to proceed for 30 minutes. After the completion of the reaction, the supernatant (blood plasma) was recovered via centrifugation at 4° C., and the amount of thromboxane B2 in the plasma was quantified using a kit (519031, Cayman Chemical). The amount of thromboxane B2 produced via the addition of ionomycin was designated as 100%, and the concentration of the test compound that inhibits 50% of such reaction was represented by the IC50 value.

COX-2 = biological target: T2, COX-2 (Homo sapiens, UniProt P35354); test: Activity of inhibiting COX-2 in human blood (prostaglandin E2 after lipopolysaccharide); assay type: cell-based; conditions: prostaglandin E2 production
T2 construct: Human blood that had been sampled with the use of heparin (19 units/ml) was used; from tissue; host or cells: human whole blood (heparinised), aspirin-pretreated, stimulated with lipopolysaccharide
T2 sequence (P35354 18-604): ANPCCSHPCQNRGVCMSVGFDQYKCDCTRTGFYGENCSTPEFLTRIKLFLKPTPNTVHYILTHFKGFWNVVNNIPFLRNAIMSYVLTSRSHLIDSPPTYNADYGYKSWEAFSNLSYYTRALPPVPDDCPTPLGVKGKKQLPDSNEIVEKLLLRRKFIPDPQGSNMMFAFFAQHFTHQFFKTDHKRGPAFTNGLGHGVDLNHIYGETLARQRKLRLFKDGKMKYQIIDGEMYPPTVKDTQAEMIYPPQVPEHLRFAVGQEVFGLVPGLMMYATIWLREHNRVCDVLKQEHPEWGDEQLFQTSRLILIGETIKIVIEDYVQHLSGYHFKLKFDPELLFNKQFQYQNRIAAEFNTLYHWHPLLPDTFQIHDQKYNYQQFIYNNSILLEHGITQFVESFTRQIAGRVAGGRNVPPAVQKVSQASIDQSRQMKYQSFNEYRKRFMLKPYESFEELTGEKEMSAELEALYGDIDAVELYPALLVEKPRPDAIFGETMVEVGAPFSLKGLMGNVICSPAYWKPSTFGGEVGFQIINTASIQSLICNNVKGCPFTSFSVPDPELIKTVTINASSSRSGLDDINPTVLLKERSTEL
Method: Human blood that had been sampled with the use of heparin (19 units/ml) was used. Blood was fractionated to reaction tubes in amounts of 500 μl, aspirin (12 μg/ml) was added thereto, and the resultants were incubated at 37° C. for 6 hours. Thereafter, the test compound or solvent, and lipopolysaccharide (10 μg/ml) were added, and the reaction was allowed to proceed for 18 hours. After the completion of the reaction, the supernatant (blood plasma) was recovered via centrifugation at 4° C., and the amount of prostaglandin E2 in the plasma was quantified using a kit (514010, Cayman Chemical). Dimethyl sulfoxide (DMSO) was used as a solvent for the test compound. The amount of prostaglandin E2 produced via the addition of lipopolysaccharide was designated as 100%, and the concentration of the test compound that inhibits 50% of such reaction was represented by the IC50 value.

ICR mice = test: Partial sciatic nerve ligation model in mice (Seltzer model), von Frey test; assay type: in vivo; conditions: 7 days after ligation, FIG. 1
Method: Analgesic effects of the compound of the present invention were evaluated using the partial sciatic nerve ligation model (Seltzer models) in mice, with which neuropathic pain can be evaluated.
Models of neuropathic pain were prepared in accordance with the method of Seltzer et al. ICR mice (5-week-old, male) were put under anesthesia with sodium pentobarbital (70 mg/kg, i.p.) to expose the sciatic nerve of the femoral region of the right posterior limb, and half of the sciatic nerve was strongly and triply ligated using 8-0 silk yarn (Natsume Seisakusho, Co., Ltd.) under a microscope (this group is designated as the “ligation group”). The group that had been subjected to exposure of the sciatic nerve without ligation was designated as a sciatic nerve control group (i.e., the “sham group”). […] The von Frey tests were performed 1 hour, 2 hours, and 3 hours after the oral administration for determining the pre-values prior to the administration of the test substances, which took place 7 days after the ligation surgery of sciatic nerve, and such values were designated as the indicators of analgesic effects. Gabapentin (30 mg/kg, po) was used as a positive control. As a solvent for the test compound, 27% HP—P—CD was used.
The obtained data were processed by performing a paired t-test amongst several groups and correcting the data via Dunnett's method.
The compound of Reference Example 78 is disclosed in the claims of JP Patent Publication (kohyo) No. 2006-517535 A, the compounds of Reference Example 93 and Reference Example 199 are disclosed in the claims of JP Patent No. 3003148, and the compound of Reference Example 103 is disclosed in the claims of JP Patent Publication (kohyo) No. 2006-514095 A. Accordingly, sulfate of Reference Example 78, toluenesulfonate of Reference Example 93, the free compound of Reference Example 199, and sulfate of Reference Example 103 were used as test compounds and evaluated using mouse models of partial sciatic nerve ligation, which were similar to those used in Example 79. 27% HP-β-CD was used as a solvent for the test compounds.

ddY mice [2] = test: Formalin test in mice; assay type: in vivo; conditions: oral 10 mg/kg, FIG. 2; for indicator of pain (licking time), phase II: 10 to 30 minutes after formalin; for indicator of pain (licking time), phase I: within 10 minutes after formalin
Method: ddY mice were grown for at least 16 hours under fasting conditions while free water intake was allowed, and a solution of the test compound or a solvent was orally administered thereto (0.1 ml/10 g). As a solvent for a solution of the test compound, 27% HP-β-CD was used. Thirty minutes after administration, 20 μl of a 2.5% formalin solution was subcutaneously administered to the ichnograms of right posterior legs of mice to induce a movement of licking. A movement of mice to lick the treated legs was designated as an indicator of pain, and the licking time was measured at 5-minute intervals for 30 minutes. The reaction that had occurred within 10 minutes immediately after administration of the formalin solution was designated as the phase I reaction, and the reaction that had occurred 10 to 30 minutes after administration was designated as the phase II reaction.

[3] = oral administration 45 minutes before 0.6% acetic acid i.p., 50% inhibition of writhing reactions, read-out: ED50 (mg/kg)[90% confidence limit]
[4] = sc, Table 5, subcutaneous administration, read-out: ED50 (mg/kg) [90% confidence limit]
[5] = oral administration of 3 and 10 mg/kg of Example 27 and Example 40, respectively

Compound: COc1ccc(-c2nc(C3CCN(C(=O)N(C)O)CC3)oc2-c2ccc(C)cc2)cc1 [Example 7, 4-(4-(4-Methoxyphenyl)-5-(4-tolyl)oxazol-2-yl)-1-(N-hydroxy-N-methylcarbamoyl)piperidine]
- ED50 (ddY mice [1]; [3]): 3.27 mg/kg
- pIC50 (COX-1): > 7.00
- pIC50 (COX-2): < 5.00

Compound: COc1ccc(-c2nc(C3CCN(C(=O)N(C)O)CC3)oc2-c2ccc(F)cc2)cc1 [Example 9, 4-(5-(4-Fluorophenyl)-4-(4-methoxyphenyl)oxazol-2-yl)-1-(N-hydroxy-N-methylcarbamoyl)-piperidine]
- ED50 (ddY mice [1]; [3]): 2.63 mg/kg
- pIC50 (COX-1): > 7.00
- pIC50 (COX-2): < 5.00

Compound: COc1ccc(-c2oc(C3CCN(C(=O)N(C)O)CC3)nc2-c2ccc(Cl)cc2)cc1 [Example 12, 4-(4-(4-Chlorophenyl)-5-(4-methoxyphenyl)oxazol-2-yl)-1-(N-hydroxy-N-methylcarbamoyl)-piperidine]
- ED50 (ddY mice [1]; [3]): 2.29 mg/kg
- pIC50 (COX-1): > 7.00
- pIC50 (COX-2): < 5.00

Compound: COC(=O)C1(c2nc(-c3ccc(OC)cc3)c(-c3ccc(OC)cc3)o2)CCN(C(=O)N(C)O)CC1 [Example 14, Methyl 4-(4,5-bis(4-methoxyphenyl)oxazol-2-yl)-1-(N-hydroxy-N-methylcarbamoyl)-4-piperidinecarboxylate]
- ED50 (ddY mice [1]; [3]): 4.17 mg/kg
- results of the von Frey test (ICR mice; oral administration of 10 mg/kg): significantly improved
- pIC50 (COX-1): > 7.00
- pIC50 (COX-2): < 5.00

Compound: COc1ccc(-c2nc(C3CCN(C(=O)N(C)O)CC3)oc2-c2ccc(Cl)cc2)cc1 [Example 20, 4-(5-(4-Chlorophenyl)-4-(4-methoxyphenyl)oxazol-2-yl)-1-(N-hydroxy-N-methylcarbamoyl)-piperidine]
- ED50 (ddY mice [1]; [3]): 6.45 mg/kg
- pIC50 (COX-1): > 7.00
- pIC50 (COX-2): < 5.00

Compound: COc1ccc(-c2nc(C3CCN(C(=O)N(C)O)CC3)sc2-c2ccc(OC)cc2)cc1 [Example 27, 4-(4,5-Bis(4-methoxyphenyl)thiazol-2-yl)-1-(N-hydroxy-N-methylcarbamoyl)piperidine]
- ED50 (ddY mice [1]; [4]): 1.82 mg/kg
- ED50 (ddY mice [1]; [3]): 2.46 mg/kg
- activity ratio (analgesic effects) (ddY mice [1]; compared with Reference Example 93 (toluenesulfonate)): at least 54 times
- activity ratio (analgesic effects) (ddY mice [1]; compared with Reference Example 199): about 19 times
- results of the von Frey test (ICR mice; [5]): significantly improved
- indicator of pain (licking time), phase II (ddY mice [2]): significantly improved
- indicator of pain (licking time), phase I (ddY mice [2]): significantly improved
- pIC50 (COX-1): > 7.00
- pIC50 (COX-2): < 5.00

Compound: COc1ccc(-c2cc(C3CCN(C(=O)N(C)O)CC3)nn2-c2ccc(OC)cc2)cc1 [Example 40, 4-(1,5-Bis(4-methoxyphenyl)-1H-pyrazol-3-yl)-1-(N-hydroxy-N-methylcarbamoyl)piperidine]
- ED50 (ddY mice [1]; [4]): 2.47 mg/kg
- ED50 (ddY mice [1]; [3]): 1.64 mg/kg
- activity ratio (analgesic effects) (ddY mice [1]; compared with Reference Example 103 (sulfate)): at least 40 times
- results of the von Frey test (ICR mice; [5]): significantly improved
- indicator of pain (licking time), phase II (ddY mice [2]): significantly improved
- indicator of pain (licking time), phase I (ddY mice [2]): significantly improved
- pIC50 (COX-1): > 7.00
- pIC50 (COX-2): < 5.00

Compound: COc1ccc(-c2nc(C3(C#N)CCN(C(=O)N(C)O)CC3)oc2-c2ccc(OC)cc2)cc1 [Example 47, 4-(4,5-Bis(4-methoxyphenyl)oxazol-2-yl)-4-cyano-1-(N-hydroxy-N-methylcarbamoyl)piperidine]
- ED50 (ddY mice [1]; [3]): 3.3 mg/kg
- pIC50 (COX-1): > 7.00
- pIC50 (COX-2): < 5.00

Compound: COc1ccc(-c2nc(C3(C#N)CCN(C(=O)N(C)O)CC3)sc2-c2ccc(OC)cc2)cc1 [Example 56, 4-(4,5-Bis(4-methoxyphenyl)thiazol-2-yl)-4-cyano-1-(N-hydroxy-N-methylcarbamoyl)piperidine]
- ED50 (ddY mice [1]; [3]): 4.61 mg/kg
- pIC50 (COX-1): > 7.00
- pIC50 (COX-2): < 5.00

Compound: COc1ccc(-n2nc(C3CCN(C(=O)N(C)O)CC3)cc2-c2ccc(C)cc2)cc1 [Example 69, 4-(1-(4-Methoxyphenyl)-5-(4-tolyl)-1H-pyrazol-3-yl)-1-(N-hydroxy-N-methylcarbamoyl)piperidine]
- ED50 (ddY mice [1]; [3]): 3.19 mg/kg
- pIC50 (COX-1): > 7.00
- pIC50 (COX-2): < 5.00
